In brackets after ≈: the same amount, converted by molar mass.
What was measured:
[1] = system: Influenza B virus; experiment: Antiviral activity against influenza B virus assessed as inhibition of viral induced cytopathic effect; format: functional, organism-based
[2] = system: Influenza B virus; experiment: Antiviral activity against influenza B virus assessed as cell viability by cell based MTS assay; format: functional, organism-based
[3] = system: Influenza A virus; experiment: Antiviral activity against influenza A virus H1N1 assessed as cell viability by cell based MTS assay; format: functional, organism-based
[4] = system: Influenza A virus; experiment: Antiviral activity against Influenza A virus H3N2 assessed as inhibition of viral induced cytopathic effect; format: functional, organism-based
[5] = system: Influenza A virus; experiment: Antiviral activity against Influenza A virus H3N2 assessed as cell viability by cell based MTS assay; format: functional, organism-based
[6] = system: Staphylococcus aureus; experiment: Antibacterial activity against methicillin-[…] Staphylococcus aureus ATCC 33591 by broth microdilution method; format: functional
[7] = system: Enterococcus faecalis; experiment: Antibacterial activity against vancomycin and teicoplanin-resistant Enterococcus faecalis 15376 expressing VanA gene by broth microdilution method; format: functional
[8] = system: Staphylococcus epidermidis; experiment: Antibacterial activity against Staphylococcus epidermidis by broth microdilution method; format: functional
[9] = system: Enterococcus faecalis; experiment: Antibacterial activity against vancomycin and teicoplanin-sensitive Enterococcus faecalis ATCC 29212 by broth microdilution method; format: functional
[10] = system: Influenza A virus; experiment: Antiviral activity against influenza A virus H1N1 assessed as inhibition of viral induced cytopathic effect; format: functional, organism-based
[11] = system: Enterococcus faecalis; experiment: Antibacterial activity against vancomycin-resistant and teicoplanin-sensitive Enterococcus faecalis ATCC 5129 expressing VanB gene by broth microdilution method; format: functional
[12] = system: Bacillus subtilis; experiment: Antibacterial activity against Bacillus subtilis ATCC 6633 by broth microdilution method; format: functional
[13] = system: Staphylococcus epidermidis; experiment: Antibacterial activity against biofilm positive Staphylococcus epidermidis ATCC 35984; format: functional
[14] = system: Staphylococcus aureus; experiment: Antibacterial activity against methicillin-[…] Staphylococcus aureus ATCC 29213 by broth microdilution method; format: functional

Row | SMILES | EC50 [1] [µM] | EC50 [2] [µM] | EC50 [3] [µM] | EC50 [4] [µM] | EC50 [5] [µM] | MBC [6] [µg/mL] | MIC [6] [µg/mL] | MIC [7] [µg/mL] | MBC [8] [µg/mL] | MIC [8] [µg/mL] | MBC [9] [µg/mL] | MIC [9] [µg/mL] | EC50 [10] [µM] | MBC [11] [µg/mL] | MIC [11] [µg/mL] | MBC [12] [µg/mL] | MIC [12] [µg/mL] | MBC [13] [µg/mL] | MIC [13] [µg/mL] | MBC [14] [µg/mL] | also measured
1 | NC(=O)c1ncn([C@@H]2O[C@H](CO)[C@@H](O)[C@H]2O)n1 [RIBAVIRIN] | 4 | 4.7 | 11 | – | – | – | – | – | – | – | – | – | – | – | – | – | – | – | – | – | –
2 | COC(=O)[C@@H]1NC(=O)[C@H]2NC(=O)[C@H](NC(=O)[C@@H]3NC(=O)[C@H]4NC(=O)[C@H](NC(=O)[C@H](n5cc(CO[C@@H]6O[C@@H](C)[C@H](OC(C)=O)[C@@H](OC(C)=O)[C@H]6OC(C)=O)nn5)c5ccc(O)c(c5)Oc5cc4cc(O)c5C)[C@H](O)c4ccc(cc4)Oc4cc3cc(c4O)Oc3ccc(cc3)[C@H]2O)c2ccc(O)c(c2)-c2c(O)cc(O)cc21 | > 100 | > 100 | > 100 | > 100 | > 100 | 32 (≈ 20.9 µM) | 16 (≈ 10.5 µM) | 16 (≈ 10.5 µM) | 8 (≈ 5.23 µM) | 4 (≈ 2.62 µM) | 256 (≈ 167 µM) | 32 (≈ 20.9 µM) | > 100 | 256 (≈ 167 µM) | 128 (≈ 83.7 µM) | 32 (≈ 20.9 µM) | 32 (≈ 20.9 µM) | 4 (≈ 2.62 µM) | 4 (≈ 2.62 µM) | 32 (≈ 20.9 µM) | MBC [7]: 256 µg/mL (≈ 167 µM); MIC [14]: 16 µg/mL (≈ 10.5 µM)
3 | Cc1c(O)cc2cc1Oc1cc(ccc1O)[C@@H](N)C(=O)N[C@H]1C(=O)N[C@@H]2C(=O)N[C@H]2C(=O)N[C@H]3C(=O)N[C@H](C(=O)N[C@@H](C(=O)O)c4cc(O)cc(O[C@H]5O[C@H](CO)[C@@H](O)[C@H](O)[C@@H]5O)c4-c4cc3ccc4O)[C@H](O[C@H]3C[C@@H](N)[C@@H](O)[C@H](C)O3)c3ccc(cc3)Oc3cc2cc(c3O[C@H]2O[C@@H](CO[C@H]3O[C@H](C)[C@@H](O)[C@H](O)[C@@H]3O)[C@H](O)[C@@H](O)[C@@H]2O[C@H]2O[C@H](CO)[C@@H](O)[C@H](O)[C@@H]2O[C@H]2O[C@H](CO)[C@@H](O)[C@@H]2O)Oc2ccc(cc2)[C@H]1O [RISTOCETIN] | – | – | – | – | – | 64 (≈ 31.2 µM) | 16 (≈ 7.79 µM) | 128 (≈ 62.3 µM) | 16 (≈ 7.79 µM) | 16 (≈ 7.79 µM) | 256 (≈ 125 µM) | 4 (≈ 1.95 µM) | – | 256 (≈ 125 µM) | 128 (≈ 62.3 µM) | 4 (≈ 1.95 µM) | 2 (≈ 0.974 µM) | 64 (≈ 31.2 µM) | 32 (≈ 15.6 µM) | 64 (≈ 31.2 µM) | MBC [7]: 256 µg/mL (≈ 125 µM); MIC [14]: 16 µg/mL (≈ 7.79 µM)
4 | NC12CC3CC(CC(C3)C1)C2 [AMANTADINE] | > 500 | > 500 | 19 | 7 | 9.2 | – | – | – | – | – | – | – | 20 | – | – | – | – | – | – | – | –
5 | COC(=O)[C@H]1NC(=O)[C@H]2NC(=O)[C@H](NC(=O)[C@@H]3NC(=O)[C@H]4NC(=O)[C@H](NC(=O)[C@H](N=[N+]=[N-])c5ccc(O)c(c5)Oc5cc4cc(O)c5C)[C@H](O)c4ccc(cc4)Oc4cc3cc(c4O)Oc3ccc(cc3)[C@H]2O)c2ccc(O)c(c2)-c2c(O)cc(O)cc21 [listing 1 of 2 here] | – | – | – | – | – | 2 (≈ 1.67 µM) | 1 (≈ 0.833 µM) | > 256 | 8 (≈ 6.67 µM) | 4 (≈ 3.33 µM) | 16 (≈ 13.3 µM) | 8 (≈ 6.67 µM) | – | 128 (≈ 107 µM) | 64 (≈ 53.3 µM) | 4 (≈ 3.33 µM) | 1 (≈ 0.833 µM) | 64 (≈ 53.3 µM) | 32 (≈ 26.7 µM) | 2 (≈ 1.67 µM) | MIC [14]: 2 µg/mL (≈ 1.67 µM)
6 | COC(=O)[C@H]1NC(=O)[C@H]2NC(=O)[C@H](NC(=O)[C@@H]3NC(=O)[C@H]4NC(=O)[C@H](NC(=O)[C@H](N=[N+]=[N-])c5ccc(O)c(c5)Oc5cc4cc(O)c5C)[C@H](O)c4ccc(cc4)Oc4cc3cc(c4O)Oc3ccc(cc3)[C@H]2O)c2ccc(O)c(c2)-c2c(O)cc(O)cc21 [listing 2 of 2 here] | > 100 | > 100 | – | ≥ 20 | ≥ 9 | – | – | – | – | – | – | – | 9.5 | – | – | – | – | – | – | – | –
7 | CCOC(=O)C1=C[C@@H](OC(CC)CC)[C@H](NC(C)=O)[C@@H](N)C1 [OSELTAMIVIR] | 23 | 27 | 11 | 32 | 38 | – | – | – | – | – | – | – | 12 | – | – | – | – | – | – | – | –
8 | COC(=O)[C@@H]1NC(=O)[C@H]2NC(=O)[C@H](NC(=O)[C@@H]3NC(=O)[C@H]4NC(=O)[C@H](NC(=O)[C@H](n5cc(CO[C@H]6O[C@H](COC(C)=O)[C@@H](OC(C)=O)[C@H](OC(C)=O)[C@@H]6OC(C)=O)nn5)c5ccc(O)c(c5)Oc5cc4cc(O)c5C)[C@H](O)c4ccc(cc4)Oc4cc3cc(c4O)Oc3ccc(cc3)[C@H]2O)c2ccc(O)c(c2)-c2c(O)cc(O)cc21 | > 100 | > 100 | 5 | > 100 | > 100 | 4 (≈ 2.52 µM) | 2 (≈ 1.26 µM) | 2 (≈ 1.26 µM) | 4 (≈ 2.52 µM) | 2 (≈ 1.26 µM) | 128 (≈ 80.7 µM) | 4 (≈ 2.52 µM) | 4 | 256 (≈ 161 µM) | 8 (≈ 5.04 µM) | 8 (≈ 5.04 µM) | 4 (≈ 2.52 µM) | 4 (≈ 2.52 µM) | 4 (≈ 2.52 µM) | 4 (≈ 2.52 µM) | MBC [7]: 128 µg/mL (≈ 80.7 µM); MIC [14]: 2 µg/mL (≈ 1.26 µM)
9 | COC(=O)[C@@H]1NC(=O)[C@H]2NC(=O)[C@H](NC(=O)[C@@H]3NC(=O)[C@H]4NC(=O)[C@H](NC(=O)[C@H](n5cc(CO[C@H]6O[C@H](COC(C)=O)[C@@H](OC(C)=O)[C@H](OC(C)=O)[C@H]6NC(C)=O)nn5)c5ccc(O)c(c5)Oc5cc4cc(O)c5C)[C@H](O)c4ccc(cc4)Oc4cc3cc(c4O)Oc3ccc(cc3)[C@H]2O)c2ccc(O)c(c2)-c2c(O)cc(O)cc21 | > 100 | > 100 | 5.8 | > 100 | > 100 | 64 (≈ 40.4 µM) | 1 (≈ 0.631 µM) | 2 (≈ 1.26 µM) | 4 (≈ 2.52 µM) | 4 (≈ 2.52 µM) | 256 (≈ 161 µM) | 4 (≈ 2.52 µM) | 8 | 256 (≈ 161 µM) | 4 (≈ 2.52 µM) | 8 (≈ 5.05 µM) | 2 (≈ 1.26 µM) | 8 (≈ 5.05 µM) | 8 (≈ 5.05 µM) | 256 (≈ 161 µM) | MBC [7]: 256 µg/mL (≈ 161 µM); MIC [14]: 0.5 µg/mL (≈ 0.315 µM)
10 | CC(N)C12CC3CC(CC(C3)C1)C2 (centres undefined) [RIMANTADINE] | > 500 | > 500 | 283 | 4 | 5.6 | – | – | – | – | – | – | – | 224 | – | – | – | – | – | – | – | –
11 | COC(=O)[C@H]1NC(=O)[C@H]2NC(=O)[C@H](NC(=O)[C@@H]3NC(=O)[C@H]4NC(=O)[C@H](NC(=O)[C@H](n5cc(CO[C@@H]6O[C@@H](C)[C@H](O)[C@@H](O)[C@H]6O)nn5)c5ccc(O)c(c5)Oc5cc4cc(O)c5C)[C@H](O)c4ccc(cc4)Oc4cc3cc(c4O)Oc3ccc(cc3)[C@H]2O)c2ccc(O)c(c2)-c2c(O)cc(O)cc21 | – | – | – | – | – | 16 (≈ 11.4 µM) | 8 (≈ 5.7 µM) | 16 (≈ 11.4 µM) | 32 (≈ 22.8 µM) | 16 (≈ 11.4 µM) | 256 (≈ 183 µM) | 32 (≈ 22.8 µM) | – | 128 (≈ 91.3 µM) | 64 (≈ 45.6 µM) | 16 (≈ 11.4 µM) | 16 (≈ 11.4 µM) | 16 (≈ 11.4 µM) | 16 (≈ 11.4 µM) | 8 (≈ 5.7 µM) | MBC [7]: 256 µg/mL (≈ 183 µM); MIC [14]: 8 µg/mL (≈ 5.7 µM)

From ChEMBL document CHEMBL1158551, “Click reaction synthesis of carbohydrate derivatives from ristocetin aglycon with antibacterial and antiviral activity” (Bioorg Med Chem Lett, 2010)
